Laboratory results as given in patent US12606541B2, “PPARg modulators and methods of use” (Eisai R&D Management Co., Ltd., priority 2020, dated 2026).

Biological target: T1, His6-TEV-PPARγ-(234-505) (Homo sapiens, UniProt P37231)
T1 construct: The His6-TEV-PPARγ-(234-505) protein for assay was expressed and purified; TEV cleavage site (N); made in house
T1 sequence (P37231 234-505): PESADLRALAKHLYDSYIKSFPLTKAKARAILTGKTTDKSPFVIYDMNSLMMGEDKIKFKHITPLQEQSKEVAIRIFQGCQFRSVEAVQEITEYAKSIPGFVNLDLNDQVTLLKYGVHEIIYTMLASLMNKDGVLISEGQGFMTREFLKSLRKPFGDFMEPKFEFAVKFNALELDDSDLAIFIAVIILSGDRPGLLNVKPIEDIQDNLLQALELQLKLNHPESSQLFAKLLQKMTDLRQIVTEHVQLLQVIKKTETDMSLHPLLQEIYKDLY
Experiment: TR-FRET Assay to Measure Co-R Peptide Recruitment to PPARγ
Assay type: biochemical
Details: Co-R peptide recruitment to PPARγ; read-out: TR-FRET AC50
Method in brief: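 His-tagged PPARγ (or controls) was preincubated with compound for 20 minutes at room temperature, then 5 nM anti-His terbium antibody and 200 nM FITC-labeled SMRT-ID2 corepressor peptide (final) were added for a further hour. TR-FRET signal was normalized to percent response using 500 nM T0070907 and DMSO controls.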

AC50, > 1000 nM:
COc1cc(-c2cc(C(=O)N3CCC(C(=O)NCc4nnc5ccc(C(F)(F)F)cn45)CC3)n[nH]2)c(Cl)cn1 [1-[5-(5-chloro-2-methoxypyridin-4-yl)-1H-pyrazole-3-carbonyl]-N-{[6-(trifluoromethyl)-[1,2,4]triazolo[4,3-a]pyridin-3-yl]methyl}piperidine-4-carboxamide]
COc1cc(-c2cc(C(=O)N3CCC(C(=O)Nc4cnc5ccccn45)CC3)n[nH]2)c(Cl)cn1 [1-[5-(5-chloro-2-methoxypyridin-4-yl)-1H-pyrazole-3-carbonyl]-N-{imidazo[1,2-a]pyridin-3-yl}piperidine-4-carboxamide]
COc1cc(-c2cc(C(=O)N3CCC(C(=O)O)CC3)n[nH]2)c(Cl)cn1 [1-[5-(5-chloro-2-methoxypyridin-4-yl)-1H-pyrazole-3-carbonyl]piperidine-4-carboxylic acid]
COc1cc(-c2cc(C(=O)N3CCC(C(=O)NC4(c5ccccc5)CC4)CC3)n[nH]2)c(F)cn1 [1-[5-(5-fluoro-2-methoxypyridin-4-yl)-1H-pyrazole-3-carbonyl]-N-(1-phenylcyclopropyl)piperidine-4-carboxamide]
COc1cc(-c2cc(C(=O)N3CCC(C(=O)NC4COC(C)OC4)CC3)n[nH]2)c(F)cn1 (centres unmarked) [1-[5-(5-fluoro-2-methoxypyridin-4-yl)-1H-pyrazole-3-carbonyl]-N-(2-methyl-1,3-dioxan-5-yl)piperidine-4-carboxamide]
COc1cc(-c2cc(C(=O)N3CCC(C(=O)NC4CCCCO4)CC3)n[nH]2)c(F)cn1 (centres unmarked) [1-[5-(5-fluoro-2-methoxypyridin-4-yl)-1H-pyrazole-3-carbonyl]-N-(oxan-2-yl)piperidine-4-carboxamide]
O=C(NCCN1CCCC1)C1CCN(C(=O)c2cc(-c3ccncc3)[nH]n2)CC1 [1-[5-(pyridin-4-yl)-1H-pyrazole-3-carbonyl]-N-[2-(pyrrolidin-1-yl)ethyl]piperidine-4-carboxamide]
O=C(Nc1cccc(C(F)(F)F)c1)C1CCN(C(=O)c2cc(-c3ccncc3)[nH]n2)CC1 [1-[5-(pyridin-4-yl)-1H-pyrazole-3-carbonyl]-N-[3-(trifluoromethyl)phenyl]piperidine-4-carboxamide]
O=C(NCc1ccncc1)C1CCN(C(=O)c2cc(-c3ccncc3)[nH]n2)CC1 [1-[5-(pyridin-4-yl)-1H-pyrazole-3-carbonyl]-N-[(pyridin-4-yl)methyl]piperidine-4-carboxamide]
O=C(c1cc(-c2ccncc2)[nH]n1)N1CCC(C(=O)N2CCN(c3ccccc3)CC2)CC1 [1-phenyl-4-{1-[5-(pyridin-4-yl)-1H-pyrazole-3-carbonyl]piperidine-4-carbonyl}piperazine]
O=C(c1cc(-c2ccncc2)[nH]n1)N1CCC(C(=O)N2CCN(CC(F)(F)F)CC2)CC1 [1-{1-[5-(pyridin-4-yl)-1H-pyrazole-3-carbonyl]piperidine-4-carbonyl}-4-(2,2,2-trifluoroethyl)piperazine]
O=C(c1cc(-c2ccncc2)[nH]n1)N1CCC(C(=O)N2CCC23COC3)CC1 [1-{1-[5-(pyridin-4-yl)-1H-pyrazole-3-carbonyl]piperidine-4-carbonyl}-6-oxa-1-azaspiro[3.3]heptane]
CC1CCC(NC(=O)C2CCN(C(=O)c3cc(-c4ccnc(OC(F)F)c4)[nH]n3)CC2)CC1 (centres unmarked) [1-{5-[2-(difluoromethoxy)pyridin-4-yl]-1H-pyrazole-3-carbonyl}-N-(4-methylcyclohexyl)piperidine-4-carboxamide]
CC1CCC(NC(=O)C2CCN(C(=O)c3cc(-c4ccnc(N(C)C)c4)[nH]n3)CC2)CC1 (centres unmarked) [1-{5-[2-(dimethylamino)pyridin-4-yl]-1H-pyrazole-3-carbonyl}-N-(4-methylcyclohexyl)piperidine-4-carboxamide]
